Assay results from patent US20100330081A1, “CRIPTO BINDING MOLECULES” (priority 2007, published 2010).

Tested on: CT-3 xenograft tumors (primary human colon tumor)
Assay: CT-3 human colon tumor xenograft, combination with 5-fluorouracil (Example 2)
Type: in vivo, mice
Conditions: 5-fluorouracil alone, single dose 30 mg/kg/inj IV Day 15; study terminated Day 34
Description: Two hundred eighteen (218) female SCID beige (C.B.-17/IcrHsd-Prkcd Lyst Skid Beige) mice (Harlan Sprague Dawley, Madison, Wis.) were started on the study at six to seven weeks of age. Animals were acclimated to the laboratory for at least two days prior to implantation of the tumor. Housing was in ventilated cage racks, and food and water were allowed ad libitum.
CT-3 tumor fragments from a primary human colon tumor were originally obtained from Sera Care, Inc (Oceanside, Calif.) (sent by Peter Chu, Biogen Idec, San Diego). A serially transplanted in-vivo xenograft line was established at Biogen Idec, Inc. and fragments from the third xenograft generation were cryopreserved. […]
On Day −1, the mice were implanted with BioMedics animal ID chips (Model IMI-1000; Seaford, Del.) SC on the left flank. […] Tumor size and body weight measurements were recorded at least twice weekly beginning on […]. When the tumors measured a minimum of 100 mg (Day 15), mice were randomized to treatment and control groups (see Table 2) based on tumor size and excluding tumors with non-progressive growth. […]
Tumor measurements were determined using digital calipers. Body weights and tumor size measurements were recorded on Day 6 and were continued twice weekly until the termination of the study. […]

O=c1[nH]cc(F)c(=O)[nH]1 [5-fluorouracil]
inhibition of tumor growth (change in tumor weight): significantly inhibited tumor growth throughout the study
